The source of these data is paper PMC7796287, “Phloroglucinol Derivatives from Dryopteris crassirhizoma as Potent Xanthine Oxidase Inhibitors” (Molecules, 2020).

One data set deals with T1, xanthine oxidase (XO) (Bos taurus, UniProt P80457).
T1 construct: 20 µL of 0.1 unit XO enzyme (bovine milk) in buffer; from tissue; host or cells: bovine milk
Briefly: Assay of XO-inhibitory activity and kinetics (oxidation of xanthine to uric acid, absorbance at 295 nm). The class given is biochemical, bovine milk. As to conditions: for Xanthine Oxidase Kinetic Mode / Ki: Lineweaver–Burk and Dixon plots; for inhibition at 25 µM: read-out: Xanthine Oxidase Inhibition %; for Ki: read-out: Xanthine Oxidase Ki (inhibition constant); for IC50: isolated compounds and positive controls, substrate xanthine, pH 7.5, 37 °C. Here is the method: The extracts from four different polar solvents (EtOAc, MeOH, 50% MeOH, and H2O) were tested for their enzyme-inhibitory activities against XO. The enzyme assay followed the oxidation of xanthine to uric acid at 295 nm spectrophotometrically. […] In addition to ^13C-NMR data, various spectroscopic data were used to identify the structures. […]
XO-inhibitory activity was assayed spectrophotometrically on a SpectraMax M2 microplate reader, using a previously reported experimental procedure with a slight modification. First, 135 µL of 100 mM sodium pyrophosphate buffer (HCl, pH 7.5), 20 µL of 0.1 unit XO enzyme (bovine milk) in buffer, and 5 µL of samples (test extracts or compounds) in dimethylsulfoxide were mixed at 37 °C. The reaction was started by adding 40 µL of substrate (0.5 mM xanthine) in buffer to the mixture. The reaction mixture (200 µL) was incubated at 37 °C in a 300 µL well plate and the UV absorbance at 295 nm was determined every 1 min up to 5 min.

Like-named read-outs stand apart in the source and are kept apart here.

T1 sequence (P80457 whole entry): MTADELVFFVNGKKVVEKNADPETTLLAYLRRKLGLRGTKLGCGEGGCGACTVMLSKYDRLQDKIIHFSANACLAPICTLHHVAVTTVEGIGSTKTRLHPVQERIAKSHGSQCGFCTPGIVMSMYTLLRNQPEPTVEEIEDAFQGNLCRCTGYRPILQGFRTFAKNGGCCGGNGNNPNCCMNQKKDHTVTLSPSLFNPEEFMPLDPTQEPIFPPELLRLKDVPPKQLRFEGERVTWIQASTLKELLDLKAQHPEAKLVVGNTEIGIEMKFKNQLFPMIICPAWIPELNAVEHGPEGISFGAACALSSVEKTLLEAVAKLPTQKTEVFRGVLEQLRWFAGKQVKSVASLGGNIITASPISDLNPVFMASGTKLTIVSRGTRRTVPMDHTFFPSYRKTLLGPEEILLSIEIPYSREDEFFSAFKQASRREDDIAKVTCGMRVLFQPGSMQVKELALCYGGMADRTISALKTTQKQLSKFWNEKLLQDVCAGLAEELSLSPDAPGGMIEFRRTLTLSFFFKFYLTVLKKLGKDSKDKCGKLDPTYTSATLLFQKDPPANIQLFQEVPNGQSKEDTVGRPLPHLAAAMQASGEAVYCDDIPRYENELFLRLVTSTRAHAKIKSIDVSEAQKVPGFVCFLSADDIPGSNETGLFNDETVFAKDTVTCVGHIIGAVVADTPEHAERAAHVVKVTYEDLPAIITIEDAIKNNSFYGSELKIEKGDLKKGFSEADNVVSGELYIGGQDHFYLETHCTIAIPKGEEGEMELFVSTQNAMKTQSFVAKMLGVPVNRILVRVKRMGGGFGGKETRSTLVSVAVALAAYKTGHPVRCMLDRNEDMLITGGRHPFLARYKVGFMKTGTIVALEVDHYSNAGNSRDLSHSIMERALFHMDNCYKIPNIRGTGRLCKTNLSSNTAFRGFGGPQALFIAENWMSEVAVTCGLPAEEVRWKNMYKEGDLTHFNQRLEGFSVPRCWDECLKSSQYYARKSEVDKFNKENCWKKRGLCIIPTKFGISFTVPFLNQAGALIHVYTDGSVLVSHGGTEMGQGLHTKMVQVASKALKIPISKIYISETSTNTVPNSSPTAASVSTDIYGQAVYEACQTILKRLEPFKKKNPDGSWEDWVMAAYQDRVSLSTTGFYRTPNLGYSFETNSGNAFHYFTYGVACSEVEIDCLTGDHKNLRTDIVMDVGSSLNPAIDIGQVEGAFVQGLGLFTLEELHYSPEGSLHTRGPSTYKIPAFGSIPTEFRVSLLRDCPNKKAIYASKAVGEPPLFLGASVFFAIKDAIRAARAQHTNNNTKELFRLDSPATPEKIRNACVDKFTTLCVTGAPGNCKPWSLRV

The inhibition is how much of the control response was suppressed. In the case of `Oc1ncnc2[nH]ncc12` [Allopurinol, reference compound], at xanthine oxidase (XO), the “Xanthine Oxidase Kinetic Mode” value is reported as “Competitive” and the inhibition at 25 µM is 82.5 ± 1.7%.

For orientation: Ki means a dissociation constant, usually derived from enzyme kinetics or from competition with a known ligand. The term IC50 denotes the concentration needed to halve the response being measured. A low value points to higher potency. As for `CCCC(=O)C1=C(O)C(C)(C)C(O)=C(Cc2c(O)c(C)c(O)c(C(=O)CCC)c2O)C1=O` [Compound 4, 2-butyryl-6-(3-butyryl-2,4,6-trihydroxy-5-methylbenzyl)-3,5-dihydroxy-4,4-dimethylcyclohexa-2,5-dienone], at xanthine oxidase (XO), the “Xanthine Oxidase Kinetic Mode” value is recorded as “Noncompetitive”, the Ki is 21.1 µM and the IC50 was 20.9 ± 0.9 µM. The inhibition at 25 µM at xanthine oxidase (XO) (sample concentration 25 µM) worked out at 54.4 ± 1.5%.

The term melting point denotes the temperature of the solid-liquid transition. As for `CCCC(=O)c1c(O)c(C)c(O)c(CC2=C(O)C(C)(C)C(O)=C(C(C)=O)C2=O)c1O` [Compound 2, flavaspidic acid AB], the melting point was in the range of 158 to 160 °C. At xanthine oxidase (XO), the “Xanthine Oxidase Kinetic Mode” value is “Noncompetitive”, the Ki is 11.7 µM and the 50% inhibitory concentration (IC50) amounted to 10.2 ± 0.5 µM. On xanthine oxidase (XO) (sample concentration 25 µM), the inhibition at 25 µM was determined as 68.1 ± 1.3%.

Regarding `CCCC(=O)c1c(O)c(C)c(O)c(CC2=C(O)C(C)(C)C(O)=C(C(=O)CC)C2=O)c1O` [Compound 3, flavaspidic acid PB], the melting point lay within 156 to 158 °C. In addition, at xanthine oxidase (XO), the “Xanthine Oxidase Kinetic Mode” value is recorded as “Noncompetitive”, the Ki was determined as 15.3 µM and half-maximal inhibition (IC50) required 13.2 ± 0.6 µM. Moreover, the inhibition at 25 µM on xanthine oxidase (XO) (sample concentration 25 µM) came to 62.1 ± 0.9%.

Regarding `O=c1[nH]c(=O)c2c[nH]nc2[nH]1` [Oxypurinol, reference compound], inhibition against xanthine oxidase (XO) was half-maximal at 43.1 ± 0.8 µM (IC50). On xanthine oxidase (XO) (sample concentration 25 µM), the inhibition at 25 µM is 42.2 ± 1.2%.

For the compound `CCC(=O)c1c(O)c(C)c(O)c(CC2=C(O)C(C)(C)C(O)=C(C(C)=O)C2=O)c1O` [Compound 1, flavaspidic acid AP], at xanthine oxidase (XO), the “Xanthine Oxidase Kinetic Mode” value is reported as “noncompetitive inhibitor”, the Ki was 7.8 µM and the IC50 was 6.3 ± 0.4 µM. For the same compound, the “efficacy of 1 relative to 4 (fold, from IC50)” value on xanthine oxidase (XO) (XO inhibition, compared with 4 (IC50 = 20.9 µM)) was about 4 fold. The “Reversibility of XO inhibition” value at xanthine oxidase (XO) (activity versus enzyme concentration (0-0.2 units/mL) at different inhibitor concentrations) is on record as “reversible inhibitor”. In addition, the inhibition at 25 µM at xanthine oxidase (XO) (sample concentration 25 µM) was determined as 79.6 ± 1.6%.
